Literature values in patent publication US20190358212A1, “USES OF EGFR/HER2 INHIBITOR COMBINED WITH PYRIMIDINE-TYPE ANTI-METABOLIC DRUG” (Jiangsu Hengrui Medicine Co., Ltd., priority 2017, published 2019).

Assays:
EGFR = EGFR (Homo sapiens, UniProt P00533); conditions: CN102471312A
HER2 = HER2 (Homo sapiens, UniProt P04626); conditions: CN102471312A
[1] = test system: HER2+ metastatic breast cancer; conditions: J Clin Oncol 33, 2015 (suppl; abstr e11596)

Sequence of EGFR (P00533 25-1210): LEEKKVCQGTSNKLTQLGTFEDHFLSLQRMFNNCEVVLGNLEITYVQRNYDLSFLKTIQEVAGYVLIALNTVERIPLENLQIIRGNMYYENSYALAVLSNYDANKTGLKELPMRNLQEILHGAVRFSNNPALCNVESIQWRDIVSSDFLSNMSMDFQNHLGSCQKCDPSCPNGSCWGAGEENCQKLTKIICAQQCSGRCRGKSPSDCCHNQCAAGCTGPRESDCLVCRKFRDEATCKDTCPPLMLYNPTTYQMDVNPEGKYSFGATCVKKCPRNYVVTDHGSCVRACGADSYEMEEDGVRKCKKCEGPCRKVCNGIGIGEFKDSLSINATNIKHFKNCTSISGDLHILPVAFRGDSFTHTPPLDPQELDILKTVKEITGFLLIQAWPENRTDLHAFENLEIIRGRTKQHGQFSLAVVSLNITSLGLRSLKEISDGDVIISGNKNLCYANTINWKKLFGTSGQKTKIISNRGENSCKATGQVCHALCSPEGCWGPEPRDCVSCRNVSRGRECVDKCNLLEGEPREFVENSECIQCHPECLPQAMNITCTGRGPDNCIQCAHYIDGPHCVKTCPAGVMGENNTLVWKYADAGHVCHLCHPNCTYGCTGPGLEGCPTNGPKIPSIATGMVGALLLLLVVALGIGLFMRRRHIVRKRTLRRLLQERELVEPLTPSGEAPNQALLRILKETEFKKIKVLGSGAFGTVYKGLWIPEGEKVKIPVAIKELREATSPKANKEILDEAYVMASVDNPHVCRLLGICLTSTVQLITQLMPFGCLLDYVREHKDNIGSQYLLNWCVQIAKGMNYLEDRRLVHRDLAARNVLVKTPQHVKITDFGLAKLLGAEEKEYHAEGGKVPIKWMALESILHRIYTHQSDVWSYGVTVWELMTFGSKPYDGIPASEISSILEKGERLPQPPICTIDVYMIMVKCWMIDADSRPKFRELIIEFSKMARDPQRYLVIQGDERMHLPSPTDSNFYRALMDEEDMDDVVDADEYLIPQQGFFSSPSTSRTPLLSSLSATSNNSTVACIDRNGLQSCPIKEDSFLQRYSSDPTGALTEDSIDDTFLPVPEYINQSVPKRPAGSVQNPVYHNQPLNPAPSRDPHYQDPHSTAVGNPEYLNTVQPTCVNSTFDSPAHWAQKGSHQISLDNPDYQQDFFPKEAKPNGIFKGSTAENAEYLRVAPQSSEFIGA
Sequence of HER2 (P04626 23-1255): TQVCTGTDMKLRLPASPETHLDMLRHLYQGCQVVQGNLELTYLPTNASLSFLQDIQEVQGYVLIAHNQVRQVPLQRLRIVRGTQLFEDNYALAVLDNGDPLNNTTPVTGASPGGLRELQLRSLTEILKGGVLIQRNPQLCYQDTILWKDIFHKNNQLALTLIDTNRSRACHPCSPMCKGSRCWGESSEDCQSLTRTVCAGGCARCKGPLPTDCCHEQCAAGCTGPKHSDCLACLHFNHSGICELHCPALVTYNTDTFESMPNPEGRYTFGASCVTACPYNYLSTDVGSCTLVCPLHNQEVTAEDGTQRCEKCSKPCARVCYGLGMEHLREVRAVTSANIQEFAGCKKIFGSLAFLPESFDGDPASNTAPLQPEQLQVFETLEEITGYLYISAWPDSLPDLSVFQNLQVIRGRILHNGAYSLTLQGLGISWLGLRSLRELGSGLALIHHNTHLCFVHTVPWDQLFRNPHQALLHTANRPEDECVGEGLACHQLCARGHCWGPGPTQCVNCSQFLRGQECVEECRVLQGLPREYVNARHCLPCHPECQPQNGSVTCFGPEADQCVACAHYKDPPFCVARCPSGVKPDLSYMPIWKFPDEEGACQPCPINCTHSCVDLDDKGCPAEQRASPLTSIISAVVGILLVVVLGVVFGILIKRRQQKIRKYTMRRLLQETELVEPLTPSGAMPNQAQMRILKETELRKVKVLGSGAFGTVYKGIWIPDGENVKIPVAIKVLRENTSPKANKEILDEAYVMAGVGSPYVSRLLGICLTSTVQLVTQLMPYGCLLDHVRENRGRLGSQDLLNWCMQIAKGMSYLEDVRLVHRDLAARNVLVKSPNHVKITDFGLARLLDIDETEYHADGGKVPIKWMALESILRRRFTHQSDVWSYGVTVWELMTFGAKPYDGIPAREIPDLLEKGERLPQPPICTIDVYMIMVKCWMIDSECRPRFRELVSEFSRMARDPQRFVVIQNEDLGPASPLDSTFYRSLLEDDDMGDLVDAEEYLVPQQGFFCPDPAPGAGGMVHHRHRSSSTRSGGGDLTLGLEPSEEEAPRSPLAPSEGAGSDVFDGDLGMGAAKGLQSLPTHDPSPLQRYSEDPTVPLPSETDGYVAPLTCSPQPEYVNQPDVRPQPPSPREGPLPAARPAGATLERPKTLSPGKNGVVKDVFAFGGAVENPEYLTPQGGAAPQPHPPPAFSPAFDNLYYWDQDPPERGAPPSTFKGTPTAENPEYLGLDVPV

inhibition effect on EGFR (EGFR): potent inhibition effect
inhibition effect on HER2 (HER2): potent inhibition effect
Structure (SMILES): CCOc1cc2ncc(C#N)c(Nc3ccc(OCc4ccccn4)c(Cl)c3)c2cc1NC(=O)/C=C/[C@H]1CCCN1C [Compound A, (E)-N-[4-[[3-chloro-4-(2-pyridylmethoxy)phenyl]amino]-3-cyano-7-ethoxy-6-quinolyl]-3-[(2R)-1-methylpyrrolidin-2-yl]prop-2-enamide]
effect on patients with HER2+ metastatic breast cancer [1]: a certain effect
